Source: US20090270386A1, “THERAPEUTIC COMPOUNDS” (ALLERGAN, INC., priority 2008, published 2009)

Columns and labels:
[1] = test system: normotensive dogs; assay: Intraocular pressure reduction in normotensive dogs; assay type: in vivo
Description: U.S. Pat. No. 7,091,231 describes the methods used for these in vivo tests.
Compounds such as those described in the above are tested in vivo to measure its ability to reduce intraocular pressure. Compound 14a is tested in normotensive dogs.

[2] = test system: laser-induced hypertensive monkeys; assay: Intraocular pressure reduction in laser-induced hypertensive monkeys; assay type: in vivo
[3] = test system: lashes and adjacent hairs of glaucoma patients; assay: Observation of eyelash/hair growth in glaucoma patients treated in one eye; assay type: in vivo, humans; conditions: glaucoma patients treated unilaterally
Source text: In the course of treating patients having glaucoma, treatment may only be appropriate in one eye. […] The lash appearance on the lids of the treated eyes would have appeared quite attractive if it represented a bilateral phenomenon. As a result of its asymmetric nature, the long lashes on one side could be construed as disturbing from a cosmetic standpoint. A systemic examination was preformed as a result of the asymmetric phenomenon. It soon became apparent that this altered appearance was not an isolated finding. […] Definite differences could be identified to varying degrees in the lashes and adjacent hairs of all patients who were taking the drug on a unilateral basis for longer than 6 months.
The changes in the lashes were apparent on gross inspection in several patients once attention was focused on the issue. In those with light colored hair and lashes, the differences were only seen easily with the aid of the high magnification and lighting capabilities of the slit lamp biomicroscope. In the course of glaucoma follow-up examination, attention is generally immediately focused on the eye itself. As a result of the high power magnification needed only one eye is seen at a time and the eye is seen at a high enough power that the lashes are not in focus. […]

SMILES | intraocular pressure (IOP) change from baseline [1] | IOP change from baseline [2] | lash appearance in treated eye versus non-treated eye [3]
CC(=O)OCCc1cc(Cl)cc(OCC2C(O)CC(Cl)C2CC=CCCCC(=O)OCCO)c1 (centres unmarked) [Compound 16a] | decreases from baseline | decreases from baseline | 
CC(=O)OCCc1cc(Cl)cc(OCC2C(O)CC(Cl)C2CC=CCCCC(=O)OCCN2CCOCC2)c1 (centres unmarked) [Compound 16b] | decreases from baseline | decreases from baseline | 
COCc1cc(Cl)cc(OCC2C(O)CC(Cl)C2CC=CCCCC(=O)OCCO)c1 (centres unmarked) [Compound 22a] | decreases from baseline | decreases from baseline | 
COCc1cc(Cl)cc(OCC2C(O)CC(Cl)C2CC=CCCCC(=O)OCCN2CCOCC2)c1 (centres unmarked) [Compound 22b] | decreases from baseline | decreases from baseline | 
O=C(OCCO)c1ccc(CCCC2C(Cl)CC(O)C2COc2cc(Cl)cc(Cl)c2)s1 (centres unmarked) [Compound 33a] | decreases from baseline | decreases from baseline | 
O=C(OCCN1CCOCC1)c1ccc(CCCC2C(Cl)CC(O)C2COc2cc(Cl)cc(Cl)c2)s1 (centres unmarked) [Compound 33b] | decreases from baseline | decreases from baseline | 
O=C(OCCO)c1ccc(CCCC2C(Cl)CC(O)C2COc2cc(Cl)cc(CO)c2)s1 (centres unmarked) [Compound 34a] | decreases from baseline | decreases from baseline | 
O=C(OCCN1CCOCC1)c1ccc(CCCC2C(Cl)CC(O)C2COc2cc(Cl)cc(CO)c2)s1 (centres unmarked) [Compound 34b] | decreases from baseline | decreases from baseline | 
Cc1cc(C)cc(OCC2C(O)CC(Cl)C2CCCc2ccc(C(=O)OCCO)s2)c1 (centres unmarked) [Compound 35a] | decreases from baseline | decreases from baseline | 
Cc1cc(C)cc(OCC2C(O)CC(Cl)C2CCCc2ccc(C(=O)OCCN3CCOCC3)s2)c1 (centres unmarked) [Compound 35b] | decreases from baseline | decreases from baseline | 
O=C(OCCO)c1ccc(CCCC2C(=O)CCC2COc2cc(Cl)cc(CO)c2)s1 (centres unmarked) [Compound 46a] | decreases from baseline | decreases from baseline | 
O=C(OCCN1CCOCC1)c1ccc(CCCC2C(=O)CCC2COc2cc(Cl)cc(CO)c2)s1 (centres unmarked) [Compound 46b] | decreases from baseline | decreases from baseline | 
O=C(OCCO)c1ccc(CCCC2C(Cl)CCC2COc2cc(Cl)cc(CO)c2)s1 (centres unmarked) [Compound 51a] | decreases from baseline | decreases from baseline | 
O=C(OCCN1CCOCC1)c1ccc(CCCC2C(Cl)CCC2COc2cc(Cl)cc(CO)c2)s1 (centres unmarked) [Compound 51b] | decreases from baseline | decreases from baseline | 
N#CC1CC(O)C(COc2cc(Cl)cc(Cl)c2)C1CCCc1ccc(C(=O)OCCO)s1 (centres unmarked) [Compound 58a] | decreases from baseline | decreases from baseline | 
N#CC1CC(O)C(COc2cc(Cl)cc(Cl)c2)C1CCCc1ccc(C(=O)OCCN2CCOCC2)s1 (centres unmarked) [Compound 58b] | decreases from baseline | decreases from baseline | 
O=C(OCCO)c1ccc(CCCC2=CCC(O)C2COc2cc(Cl)cc(Cl)c2)s1 (centres unmarked) [Compound 68a] | decreases from baseline | decreases from baseline | 
O=C(OCCN1CCOCC1)c1ccc(CCCC2=CCC(O)C2COc2cc(Cl)cc(Cl)c2)s1 (centres unmarked) [Compound 68b] | decreases from baseline | decreases from baseline | 
O=C(OCCO)c1ccc(CCCC2C(F)CC(O)C2COc2cc(Cl)cc(Cl)c2)s1 (centres unmarked) [Compound 70a] | decreases from baseline | decreases from baseline | 
O=C(OCCN1CCOCC1)c1ccc(CCCC2C(F)CC(O)C2COc2cc(Cl)cc(Cl)c2)s1 (centres unmarked) [Compound 70b] | decreases from baseline | decreases from baseline | 
CCNC(=O)CCC/C=C\C[C@@H]1[C@@H](/C=C/[C@@H](O)CCc2ccccc2)[C@H](O)C[C@@H]1O [bimatoprost] |  |  | longer, thicker, and fuller in the treated eye
